# Measured values reported in US12482566B2, “Systems and methods for predicting cancer metastasis and screening of drugs” (MESTASTOP SOLUTIONS PRIVATE LIMITED, priority 2020, dated 2025).
# Tested on: inducible engineered cell
# Assay: Mesenchymal to Epithelial transition (MET) assay (D11), plasticity ratio from E-Cadherin and Vimentin markers
# Format: cell-based
# Settings: 10 mM RA; FIG. 12A; E-Cadherin (AF 647), Vimentin (AF 488); PR with no RA 1.3
# Source text: FIGS. 12A and 12B depict an assay, Mesenchymal to Epithelial transition (MET) (D11), at various concentrations of Retinoic acid (RA) assessing markers E-Cadherin and Vimentin; and RA effect on expression of E-Cadherin and Vimentin in SW480 clone 1C3, respectively, according to embodiments as disclosed herein;
# FIGS. 12A and 12B are representations depicting assay for Mesenchymal to Epithelial transition (MET) (D11), at various concentrations of Retinoic acid (RA) measuring markers E-Cadherin and Vimentin; and RA effect on expression of E-Cadherin and Vimentin in SW480 clone 1C3, respectively. […] FIGS. 15A, 15B and 15C are representations depicting assay for Exosome vesicles secretion and uptake (D14), showing standard curve of exosome quantification; exosome secretion in colon cancer cells; and exosome uptake in cell lines.
# Mesenchymal to Epithelial transition (MET) is the ability of the tumor cells to change from the moving cellular form, back to the growing cellular form. This is measured by detecting the change in the epithelial and mesenchymal cell markers, once cells are treated with agents promoting MET. […] Flow cytometry is used, along with imaging techniques like fluorescence markers using multiple proteins as markers, including but not limited to E cadherin, Vimentin, N Cadherin, Epcam, CD 133, CD 44, to measure MET. […]
compound,measurement,value
"CC1=C(/C=C/C(C)=C/C=C/C(C)=C/C(=O)O)C(C)(C)CCC1 [RA, Retinoic acid]","PR (plasticity ratio, mesenchymal marker Vimentin to epithelial marker E-Cadherin)",0.56
